The pKa is the negative logarithm of the acid dissociation constant. Low values mean a stronger acid or weaker base, high ones a weaker acid or stronger base.

In turn, `c1ccc(CN(CC2CO2)CC2CO2)cc1` (stereo not drawn) came in with a pKa (basic group) of 5.75.
For the setting “basic group”, `Cc1cc(-c2ccccc2)nn2c(C[NH+](C)C)cnc12` yielded a pKa of 3.18.
The same measure, in the same setting: to `c1c[nH]c(Cc2[nH]cc[nH+]2)n1` belongs 4.9.
`O=C([O-])CCc1nc2ccccc2[nH]1`: the pKa was found to be 13.1 (acidic group) and 5.7 (basic group).
For `CC(Br)[N+](=O)[O-]` (stereo not drawn), the pKa (acidic group) was 7.17.
The molecule `CCC(N)(CO)CO` returned a pKa (basic group) of 8.8.
`Cc1ccc(C(=O)O)c(Br)c1` gave a pKa (acidic group) of 3.09.
`O=COO` displayed a pKa (acidic group) of 7.1.
Molecule `NCC[Se-]` gave a pKa (basic group) of 10.9.
With `O=C(O)CCc1cccs1`, the pKa (acidic group) worked out at 4.34.
Under “basic group”, `CC(C)[NH+](CCC(c1ccccc1)c1ccccn1)C(C)C` (stereo not drawn) gave a pKa of 3.2.
Molecule `CCC(C)(N)C(=O)[O-]` (stereo not drawn) showed a pKa (basic group) of 9.98.
Turning to `N[C@@H](CCC(=O)[O-])C(=O)[O-]`, for the setting “basic group”, the pKa is 9.33.
For the molecule `CC(c1cccc(Cl)c1)[N+](=O)[O-]` (stereo not drawn), the pKa (acidic group) was found to be 7.05.
As for `C[NH+](C)c1ccccc1C(=O)O`, the pKa (acidic group) turned out to be 1.4.
Where the note is “acidic group”, `COc1ccc(C(=O)O[C@H]2O[C@@H](C(=O)O)[C@H](O)[C@@H](O)[C@@H]2O)cc1OC` had a pKa of 3.47.
Under “acidic group”, `O=C(NO)c1ccc([N+](=O)[O-])cc1` came in with a pKa of 8.02.
Regarding `[O-]c1ccccc1CN1CCCCC1`, the pKa (basic group) is 11.
Turning to `O=C(O)c1cc[n+](O)cc1`, for the setting “acidic group”, the pKa was -0.48.
`Cc1ccc(SC2CC(=O)N2)cc1` (stereo not drawn) came in with a pKa (acidic group) of 13.4.
For the setting “basic group”, `O=C1[C@H]2C[C@H](CN3CCCC[C@@H]23)C2=CCCCN12` gave a pKa of 7.7.
`CC(O)CC(=O)O` (stereo not drawn) displayed a pKa (acidic group) of 4.5.
For the molecule `O=C1CC(=O)CS(=O)C1`, the pKa (acidic group) is 3.12.
As for `CC(=O)C(C(C)=O)C(C)C`, under “acidic group”, the pKa came to 12.8.
Turning to `O=C(c1ccccc1)c1ccccc1O`, where the note is “acidic group”, the pKa stood at 9.3.
Regarding `CCN(CC)CC(=O)Nc1cc(C)ccc1C`, the pKa (basic group) was 7.92.
With `Cc1cc(O)n(C2CC[NH+](C)CC2)n1`, for the setting “acidic group”, the pKa amounted to 6.63.
Where the note is “basic group”, `CN1C[C@H](C(=O)[O-])C[C@@H]2c3cccc4[nH]cc(c34)C[C@@H]21` yielded a pKa of 8.57.
For the molecule `O=C(O)[C@H]1O[C@@H]1C(=O)O`, the pKa (acidic group) came to 1.92.
Molecule `Nc1n[nH]c2ccccc12` displayed a pKa (basic group) of 3.15.
`O=C(O)c1c(O)cccc1[N+](=O)[O-]` registered a pKa (acidic group) of 2.24.
Under “acidic group”, `[NH3+]Cc1ccc(F)c(O)c1` came in with a pKa of 8.
Where the note is “basic group”, `Nc1cncnc1` yielded a pKa of 2.83.
For the molecule `CS(=O)(=O)c1ccc(S(=O)(=O)NCc2ccccc2)cc1`, the pKa (acidic group) amounted to 10.2.
The molecule `C#CCCCCCN` gave a pKa (basic group) of 10.6.
Same read-out and setting: the same measure for `COc1nc(N)c2cnn(C)c2n1`: 3.66.
For the setting “acidic group”, `COc1ccc(/C=C\C(=O)O)cc1` came in with a pKa of 4.03.
As to `CCN(CC)C(=S)NC(=O)c1ccccc1`, the pKa (acidic group) came to 8.45.
For the setting “basic group”, `CN1C2CCC(C2)N1C` registered a pKa of 6.89.
Regarding `[O-]c1ccnc2ccccc12`, under “basic group”, the pKa turned out to be 11.2.
`N#CC(C#N)=C(C#N)Nc1ccc(Br)cc1` came in with a pKa (acidic group) of 4.45.
On to `COc1cc(C(=O)O)ccc1C`, for which, under “acidic group”, the pKa stood at 4.13.
The molecule `C[NH+](C)c1ccc(/C=C/c2ccncc2)cc1` had a pKa (basic group) of 3.42.
Same read-out and setting: to `COc1ccnnc1` belongs 3.7.
On to `C=C(SC1CCCCC1)C(=O)O`, for which the pKa (acidic group) came out at 3.4.
Still for that read-out and setting: the same measure for `O=C(/C=C(/[70SH])c1ccccc1)Nc1ccccc1`: 4.51.
`Cc1cccc(CN)c1` returned a pKa (basic group) of 9.37.
Same read-out and setting: to `CN(C)CCCCCCCCCCNC(=O)/C=N/[O-]` belongs 10.6; to `Cc1cc(C)n(C)c(=O)n1`, 4.
Molecule `NC(c1ncc[nH]1)c1ncc[nH]1` displayed a pKa (basic group) of 6.49.
`Nc1cc(Br)cc(Br)c1` registered a pKa (basic group) of 2.49.
`O=c1[nH]c2ccccc2[nH]c1=O`: the pKa (acidic group) is 9.67.
Where the note is “basic group”, `[O-]c1ccc(O)c2ccccc12` came in with a pKa of 11.
The molecule `[S-]CCNCCc1ccccc1` returned a pKa (basic group) of 10.3.
Turning to `CC(C)[C@H]([NH3+])C(=O)O`, under “acidic group”, the pKa was 2.32.
For the setting “basic group”, `N[C@H]1CCCC[C@@H]1C(=O)Oc1ccc([N+](=O)[O-])cc1` showed a pKa of 8.57.
The molecule `CCOC(=O)c1c(C)nc(C)c(C(=O)OCC)c1-c1cccc(NS(=O)(=O)c2ccc(N)cc2)c1` yielded a pKa (acidic group) of 9.7.
In the case of `CCN(CC)CC#N`, the pKa (basic group) was found to be 4.18.
Turning to `Nc1ccc(S(=O)(=O)Nc2cccnc2)cc1`, the pKa (acidic group) stood at 7.89 and the pKa (basic group) was 3.
`O=C(O)c1ccc(Br)cc1`: the pKa (acidic group) stood at 3.99.
Where the note is “basic group”, `CCCNCC[S-]` had a pKa of 10.9.
Same read-out and setting: the same measure for `C=C[C@]1(O)C[C@@H](C)N[C@H]2CCCC[C@@H]21`: 9.51; for `N[C@H]1CCCC[C@H]1C(=O)Oc1ccc([N+](=O)[O-])cc1`: 8.42; for `c1ccc(-c2cccc[nH+]2)nc1`: 1.47.
Consider `CNCCc1ccc(O)c(O)c1`, for which the pKa was determined as 10.6 (acidic group) and 8.84 (basic group).
For `Cc1c(C(=O)O)[nH]c2ccccc12`, where the note is “acidic group”, the pKa was 4.33.
`Nc1ccccc1B(O)O`: the pKa amounted to 9.23 (acidic group) and 4.58 (basic group).
For `Cn1cnc2c(O)[nH+]cnc21`, the pKa (acidic group) came out at 1.86.
The molecule `N#Cc1cccc(N)c1` displayed a pKa (basic group) of 2.83.

The values are drawn from the pKa sets of Baltruschat and Czodrowski (2020).
